Legend:
human neutrophils = assay: Annexin V/PI flow cytometric assay of neutrophils’ viability; assay type: cell-based; conditions: for Higher 2-SC concentration that did not affect human neutrophils’ viability: annexin V/PI assay, 40 min incubation at 37 °C
Excerpt: (§1) Following the Declaration of Helsinki and the approval of patient-related procedures and protocols by the Ethics Committee of Centro Hospitalar do Porto, Portugal, venous blood was collected from healthy human blood donors, after informed consent. The blood was stored into K3EDTA vacuum tubes after antecubital venipuncture of the donors. In order to obtain the isolated neutrophils, the density gradient centrifugation method was applied, as previously reported, with modifications. In brief, in a 15 mL polypropylene tube, 3 mL of histopaque 1119 were added followed by 3 mL of histopaque 1077 and finally, 4.5 mL of the collected blood were slowly added. Each tube was centrifuged at 900× g at 20 °C for 30 min, with a medium acceleration and deceleration speed. Following centrifugation, the neutrophils’ portion was harvested, and PBS was added to double the volume. The neutrophils’ suspension was then centrifuged at 850× g at 4 °C for 5 min, using a maximum acceleration and deceleration speed. The supernatant was discarded, and the neutrophils’ pellet was resuspended in PBS and afterward milli-Q water was added to lyse the residual erythrocytes. The tube was gently homogenized and after a few minutes, 3% NaCl was added to restore isotony, and then centrifuged again at 850× g at 4 °C for 5 min, using a maximum acceleration and deceleration speed. The supernatant was discarded, and a neutrophils’ pellet was obtained. After isolation, the neutrophils’ pellet was resuspended in the incubation media, tris-glucose buffer (25 mM Trizma® base, 5.5 mM D-glucose, 140 mM NaCl, 1.26 mM CaCl2, 0.81 mM MgSO4, 5.37 mM KCl, pH = 7.4). Neutrophils’ suspension was kept on ice, under soft shaking, until use. The trypan blue exclusion method was used to determine cells’ yield and viability.
The effect of the studied 2-SC on neutrophils’ viability was assessed by flow cytometry, after simultaneous staining with FITC Annexin V and propidium iodide (PI) (Figure S1), as previously reported by our research group, with modifications. After isolation, neutrophils (1 × 10^6 cells/mL) were incubated with 2-SC (up to 100.00 μM) or DMSO for 40 min, at 37 °C, in a 48-well plate. At the end of incubation, the content of each well was transferred to conical microtubes and centrifuged at 400× g at 20 °C for 5 min. After discarding the supernatant, the neutrophils’ pellet was resuspended in PBS and centrifuged under the previous conditions. Once the supernatant was removed, the pellet was resuspended in 10× diluted binding buffer, and then PI and annexin V were added. This mixture was incubated in the dark at room temperature for 15 min, and finally, 10× diluted binding buffer was added. In a flow cytometer, the fluorescence signal, of at least 10,000 cells/sample, were collected in logarithmic mode and followed in channels 1 and 3. The green fluorescence corresponding to annexin V FITC was accompanied in channel 1 and plotted as a histogram of FL1 staining, whereas the fluorescence corresponding to PI was monitored in channel 3 and plotted in the same histogram but as FL3 staining. The collected data were analyzed with the BD Accuri™ C6 software. The data analysis was restricted to the neutrophils’ population. Thus, according to the light-scattering properties of neutrophils (in a forward versus side scatter plot), a polygon gate was drawn, where debris and other blood cells were excluded. The effect of 2-SC on neutrophils’ viability was expressed as a relative percentage of apoptotic and/or necrotic cells when compared to the control (without 2-SC).

[1] = test system: human neutrophils’ oxidative burst; assay: Neutrophils’ oxidative burst, PMA stimulation, luminol chemiluminescence; assay type: cell-based; conditions: for IC50: PMA 160.00 nM, luminol 500.00 μM, mean ± SEM, read-out: IC50, inhibition of human neutrophils’ oxidative burst; for inhibition at 25 µM: 25.00 µM (highest tested concentration)
Excerpt: as §1
The effect of 2-SC on the modulation of neutrophils’ oxidative burst was assessed after the stimulation of these cells with PMA by monitoring the oxidation of chemiluminescent probe, luminol, by the generated reactive species (Figure S2), according to a previously described methodology. Briefly, neutrophils (1 × 10^6 cells/mL) were pre-incubated with luminol (500.00 μM), and 2-SC (0.00–100.00 μM) or DMSO, at the final concentrations indicated. After this pre-incubation, at 37 °C for 5 min, PMA (160.00 nM) was added, and in turn, neutrophils’ stimulation was initiated. Kinetic readings were immediately initiated and followed for 40 min, at 37 °C, in a microplate reader. The arbitrary chemiluminescence value was taken at the peak of the curve, and the results were expressed as the inhibition percentage of luminol oxidation.
GraphPad Prism 6 software was used to plot the curves of percentage of inhibition versus concentrations of compound, from which the concentration that produces 50% of inhibition (IC50) was determined. GraphPad Prism 6 software was also used to perform all statistical analyses. […] In all cases, p-values < 0.05 were considered statistically significant. The results are expressed as mean ± standard error of the mean (SEM).

[2] = Homo sapiens, Neutrophil, read-out: Inhibitory activity (% ± SEM), neutrophils’ oxidative burst

COc1cccc2oc(/C=C/c3ccccc3)cc(=O)c12 [A5]
Higher 2-SC concentration that did not affect human neutrophils’ viability (human neutrophils): 6.25 µM

O=c1cc(/C=C/c2cccc(Cl)c2)oc2cccc(O)c12 [G1]
Higher 2-SC concentration that did not affect human neutrophils’ viability (human neutrophils): 12.50 µM

O=c1cc(/C=C/c2ccccc2)oc2cccc(O)c12 [A2]
Higher 2-SC concentration that did not affect human neutrophils’ viability (human neutrophils): 6.25 µM

O=c1cc(/C=C/c2cccc(O)c2)oc2ccccc12 [A6]
Higher 2-SC concentration that did not affect human neutrophils’ viability (human neutrophils): 100.00 µM | inhibition at 100 µM ([1]; Homo sapiens, Neutrophil, 100.00 µM (highest tested concentration), read-out: Inhibitory activity (% ± SEM), neutrophils’ oxidative burst): < 30%

COc1cc(OC)c2c(=O)cc(/C=C/c3ccc(O)c(O)c3)oc2c1 [B11]
Higher 2-SC concentration that did not affect human neutrophils’ viability (human neutrophils): 12.50 µM | IC50 ([1]; Homo sapiens, Neutrophil): 800 ± 100 nM

COc1ccc(/C=C/c2cc(=O)c3ccc(OC)c(OC)c3o2)cc1OC [C6]
Higher 2-SC concentration that did not affect human neutrophils’ viability (human neutrophils): 37.50 µM | IC50 ([1]; Homo sapiens, Neutrophil): 20000 ± 2000 nM | Times less active than C8 (oxidative burst) ([1]; comparison of IC50 values with C8): ~17 times

O=c1cc(/C=C/c2c(Cl)cccc2Cl)oc2cccc(O)c12 [G4]
Higher 2-SC concentration that did not affect human neutrophils’ viability (human neutrophils): 25.00 µM | inhibition at 25 µM [1, 2]: < 30%

O=c1cc(/C=C/c2ccc(O)cc2)oc2ccccc12 [B1]
Effect on total neutrophils’ population percentage (human neutrophils; 50.00 μM): affected the total neutrophils’ population percentage | Higher 2-SC concentration that did not affect human neutrophils’ viability (human neutrophils): 25.00 µM | IC50 ([1]; Homo sapiens, Neutrophil): 7500 ± 400 nM

COc1ccc(/C=C/c2cc(=O)c3ccc(OCc4ccccc4)c(OCc4ccccc4)c3o2)cc1OC [C7]
Higher 2-SC concentration that did not affect human neutrophils’ viability (human neutrophils): 25.00 µM | inhibition at 25 µM [1, 2]: < 30%

O=c1c(O)c(-c2ccc(O)c(O)c2)oc2cc(O)cc(O)c12 [Quercetin, quercetin, reference compound]
IC50 ([1]; Homo sapiens, Neutrophil): 800 ± 100 nM

COc1ccc2c(=O)cc(/C=C/c3ccc(O)c(O)c3)oc2c1OC [B13]
Higher 2-SC concentration that did not affect human neutrophils’ viability (human neutrophils): 12.50 µM | IC50 ([1]; Homo sapiens, Neutrophil): 1000 ± 200 nM

COc1cc(OC)c2c(=O)c(Br)c(/C=C/c3ccccc3)oc2c1 [H2]
Higher 2-SC concentration that did not affect human neutrophils’ viability (human neutrophils): 50.00 µM | inhibition at 50 µM ([1]; Homo sapiens, Neutrophil, 50.00 µM (highest tested concentration), read-out: Inhibitory activity (% ± SEM), neutrophils’ oxidative burst): < 30%

O=c1cc(/C=C/c2ccc(O)c(O)c2)oc2ccccc12 [B6]
Higher 2-SC concentration that did not affect human neutrophils’ viability (human neutrophils): 12.50 µM | IC50 ([1]; Homo sapiens, Neutrophil): 1000 ± 100 nM | Times more active than B1 (oxidative burst) ([1]; comparison of IC50 values with B1): ~7.5 times

O=c1cc(/C=C/c2ccc(O)cc2)oc2cc(O)ccc12 [B3]
Higher 2-SC concentration that did not affect human neutrophils’ viability (human neutrophils): 25.00 µM | IC50 ([1]; Homo sapiens, Neutrophil): 4100 ± 300 nM

O=c1cc(/C=C/c2ccc(O)c(O)c2)oc2cc(O)ccc12 [B8]
Higher 2-SC concentration that did not affect human neutrophils’ viability (human neutrophils): 25.00 µM | IC50 ([1]; Homo sapiens, Neutrophil): 700 ± 100 nM

Cc1ccc(/C=C/c2cc(=O)c3ccccc3o2)cc1 [E1]
Higher 2-SC concentration that did not affect human neutrophils’ viability (human neutrophils): 25.00 µM

O=c1cc(/C=C/c2ccc(OCc3ccccc3)c(OCc3ccccc3)c2)oc2ccccc12 [D1]
Higher 2-SC concentration that did not affect human neutrophils’ viability (human neutrophils): 12.50 µM

COc1cc(OC)c2c(=O)cc(/C=C/c3ccc(OCc4ccccc4)c(OCc4ccccc4)c3)oc2c1 [D2]
Higher 2-SC concentration that did not affect human neutrophils’ viability (human neutrophils): 12.50 µM

Cc1ccc(/C=C/c2cc(=O)c3c(O)cccc3o2)cc1 [E2]
Higher 2-SC concentration that did not affect human neutrophils’ viability (human neutrophils): 12.50 µM

— PMC8953385, “2-Styrylchromones: Cytotoxicity and Modulation of Human Neutrophils’ Oxidative Burst” (Pharmaceuticals, 2022)
